Results taken from patent US12440457B2, “Methods of treating suicidality” (Seelos Therapeutics, Inc., priority 2020, dated 2025).

Columns and labels:
[1] = test system: adults with major depressive disorder at imminent risk of suicide; test: Phase 2 study, MADRS total score; format: in vivo, human
Text: The Montgomery-Asberg Depression Rating Scale (MADRS) is a diagnostic questionnaire that can be used to measure the severity of a depressive episode in a subject. In some embodiments, the MADRS can be used to measure suicidal ideation. For example, the MADRS includes 10 items directed to the following: 1) apparent sadness (e.g., representing despondency, gloom and despair that is more than just ordinary transient low spirits that is reflected in speech, facial expression, and posture); 2) reported sadness (e.g., representing reports of depressed mood, regardless of whether it is reflected in appearance or not and can include low spirits, despondency or the feeling of being beyond help and without hope); 3) inner tension (e.g., representing feelings of ill-defined discomfort, edginess, inner turmoil, mental tension mounting to either panic, dread or anguish); 4) reduced sleep (e.g., representing the experience of reduced duration or depth of sleep compared to the subject's own normal pattern when well); 5) reduced appetite (e.g., representing the feeling of a loss of appetite compared with when-well); 6) concentration difficulties (e.g., representing difficulties in collecting one's thoughts mounting to an incapacitating lack of concentration); 7) lassitude (e.g., representing difficulty in getting started or slowness in initiating and performing everyday activities); 8) inability to feel (e.g., representing the subjective experience of reduced interest in the surroundings, or activities that normally give pleasure, and the ability to react with adequate emotion to circumstances or people is reduced); 9) pessimistic thoughts (e.g., representing thoughts of guilt, inferiority, self-reproach, sinfulness, remorse and ruin); and 10) suicidal thoughts (e.g., representing the feeling that life is not worth living, that a natural death would be welcome, suicidal thoughts, and preparations for suicide). Each item is rated from 0 to 6, with 0 reflecting that the subject is not at all as described by the item and 6 reflecting that the subject is extremely like what is described by the item. […] As another example, for suicidal thoughts, a score of 0 can indicate that the subject enjoys life or takes it as it comes; a score of 2 can indicate that the subject is weary of life and may have fleeting suicidal thoughts; a score of 4 can indicate that the subject feels he or she would probably be better off dead (e.g., suicidal thoughts are common, and suicide is considered as a possible solution, but without specific plans or intention); and a score of 6 can indicate that the subject has explicit plans for suicide when there is an opportunity (e.g., the subject has made active preparations for suicide). […]

[2] = test system: adults with major depressive disorder at imminent risk of suicide; test: Phase 2 study, MADRS item 10 (suicidality); format: in vivo, human; conditions: baseline 5
Text: The Montgomery-Asberg Depression Rating Scale (MADRS) is a diagnostic questionnaire that can be used to measure the severity of a depressive episode in a subject. In some embodiments, the MADRS can be used to measure suicidal ideation. […]

[3] = test system: adults with major depressive disorder at imminent risk of suicide; test: Phase 2 study, S-STS CMCM total score; format: in vivo, human
Text: The S-STS CMCM (version 01/01/19) is a clinician-rated outcome measure which assesses SIB on a standard 22-item scale, as well as multiple patient and clinician-rated items. The first 16 items are rated on a Likert-type scale ranging from “not at all” (0) to “extremely” (4), where select scoring (i.e., 4 specific items are scored based on the highest score on 2 of those items) yields a total score ranging from 0 to 52. The final 6 items are used only when the patient misses a visit and is unable to complete the scale; if that missed visit is due to attempted or completed suicide, the possible maximum score is 100. The CMCM also yields 5 different single-item global assessments: 1) subject-rated likelihood of a suicide attempt; 2) subject-rated treatment needed; 3) clinician global severity of suicidal impulses, thoughts, and behaviors; 4) clinician judgment of suicide risk at this time and level of management needed for suicidality; and 5) clinician judgment of subject's likelihood of making a suicide attempt or of dying by suicide in the next 7 days. […]

[4] = test system: adults with major depressive disorder at imminent risk of suicide; test: Phase 2 study, S-STS CMCM risk of suicide at this time; format: in vivo, human
Text: FIGS. 20A-20B are a table (FIG. 20A) and a graph (FIG. 20B) describing the STS CMCM (“risk of suicide at this time”) scores for Subject 1 and Subject 2 from Day 1 to Day 9 described in Example 3 of the study.
(§1) The S-STS CMCM (version 01/01/19) is a clinician-rated outcome measure which assesses SIB on a standard 22-item scale, as well as multiple patient and clinician-rated items. The first 16 items are rated on a Likert-type scale ranging from “not at all” (0) to “extremely” (4), where select scoring (i.e., 4 specific items are scored based on the highest score on 2 of those items) yields a total score ranging from 0 to 52. The final 6 items are used only when the patient misses a visit and is unable to complete the scale; if that missed visit is due to attempted or completed suicide, the possible maximum score is 100. The CMCM also yields 5 different single-item global assessments: 1) subject-rated likelihood of a suicide attempt; 2) subject-rated treatment needed; 3) clinician global severity of suicidal impulses, thoughts, and behaviors; 4) clinician judgment of suicide risk at this time and level of management needed for suicidality; and 5) clinician judgment of subject's likelihood of making a suicide attempt or of dying by suicide in the next 7 days.
(§2) The secondary endpoints will be the change from baseline at 24 hours, as well as at Day 16, in the following: • (1) S-STS total score • (2) MADRS total score at Day 16 (only) • (3) Clinical Global Impression (CGI) of Severity for SI/B (CGIS-SI/B) and Change in SI/B (CGIC-SI/B) • (4) Patient Global Impression (PGI) of Severity for SI/B (PGIS-SI/B) and Change in SI/B (PGIC-SI/B • (5) S-STS Clinician-Rated Global Severity of Suicidal Impulses, Thoughts, and Behaviors • (6) S-STS Clinician judgment of subject's risk of a suicide attempt or death by suicide at this time • (7) S-STS Clinician judgment of subject's likelihood (risk) of making a suicide attempt or of dying by suicide in the next 7 days • (8) S-STS Subject-rated global severity of suicidal impulses, thoughts, and behavior • (9) S-STS Subject-rated treatment needed score • (10) MADRS item 10 response rate (response ≤3) • (11) MADRS response (total score ≥50% reduction from baseline) • (12) MADRS remission (total score ≤12) Exploratory Endpoint:
(§3) This study is currently underway.

[5] = test system: adults with major depressive disorder at imminent risk of suicide; test: Phase 2 study, S-STS CMCM Risk of Suicide at Within the Next 7 Days; format: in vivo, human
Text: FIGS. 21A-21B are a table (FIG. 21A) and a graph (FIG. 21B) describing the STS CMCM (“risk of suicide at within the next 7 day”) scores for Subject 1 and Subject 2 from Day 1 to Day 9 described in Example 3 of the study.
as §1, §2, §3

[6] = test system: adults with major depressive disorder at imminent risk of suicide; test: Phase 2 study, overall preliminary outcome; format: in vivo, human; conditions: two subjects, first eight days
Text: as §3

[7] = Leung and Baillie 1986; cited from earlier work
[8] = Pham et al. 2018; cited from earlier work
[9] = test system: adults with major depressive disorder at imminent risk of suicide; test: Phase 2 study, CADSS dissociation
[10] = Subject 2, 24 hours post-administration, baseline 7

CNC1(c2ccccc2Cl)CCCCC1=O (racemic) [intranasal racemic ketamine, racemic ketamine]
MADRS total score ([1]; Subject 1, 24 hours post-administration, 90 mg IN plus SOC, baseline 35): 8
MADRS total score ([1]; Subject 2, 24 hours post-administration, 90 mg IN plus SOC, baseline 38): 15
MADRS total score ([1]; Subject 2, Day 8, after second dose on Day 4): 16
reduction of MADRS total score ([1]; both subjects, 24 hours post-administration): > 50%
MADRS item 10 (suicidality) score (range 0-6) ([2]; Subject 1, 24 hours post-administration): 0
MADRS item 10 (suicidality) score (range 0-6) ([2]; second subject (not given), 24 hours post-administration): 0
S-STS CMCM score (range 0-52) ([3]; Subject 1, 24 hours post-administration, baseline 18): zero
S-STS CMCM score (range 0-52) ([3]; Subject 2, 24 hours post-administration, baseline 22): 3
S-STS CMCM score (range 0-9), risk of suicide at this time ([4]; Subject 1, 24 hours post-administration, baseline 7): 3
S-STS CMCM score (range 0-9), risk of suicide at this time ([4]; Subject 1, Day 9): 2
S-STS CMCM score (range 0-9), risk of suicide at this time [4, 10]: 3
S-STS CMCM score (range 0-9), risk of suicide at this time ([4]; Subject 2, Day 9): zero
S-STS CMCM score (range 0-9), risk of suicide at this time ([4]; both subjects, Day 8): 2
S-STS CMCM Risk of Suicide at Within the Next 7 Days score (range 1-10) ([5]; Subject 1, 24 hours post-administration, baseline 5): 2
S-STS CMCM Risk of Suicide at Within the Next 7 Days score (range 1-10) [5, 10]: 1
S-STS CMCM Risk of Suicide at Within the Next 7 Days score (range 1-10) ([5]; the scores, Day 4): 1
S-STS CMCM Risk of Suicide at Within the Next 7 Days score (range 1-10) ([5]; the scores, Day 8): 0
improvements in depression and suicidality, preliminary data [6]: rapid, significant, and sustained improvements in depression and suicidality
sedation or dissociation, preliminary data [6]: no meaningful sedation or dissociation
movement during the anesthetic recovery phase [7]: increased movement
antidepressant properties [8]: exhibit antidepressant properties
CADSS score (dissociation) ([9]; Subject 1, all time points, clinical threshold score ≥4): zero
CADSS score (dissociation) ([9]; Subject 2, 40 minutes post-administration, clinical threshold score ≥4): 2
CADSS score (dissociation) ([9]; Subject 2, 1 hour post-administration): zero

NC1(c2ccccc2Cl)CCCC(O)C1=O (centres unmarked) [6-hydroxynorketamine]
antidepressant properties [8]: exhibit antidepressant properties

NC1(c2ccccc2Cl)CCCCC1=O (centres unmarked) [norketamine]
movement during the anesthetic recovery phase [7]: increased movement
